According to the supplement of paper PMC10307832:

Legend:
Assay in all cases: relative viability (nuclei count vs DMSO), 5 days (fraction); higher = more cells survive
[1] = compound: C1CNCCC1C2=CC(=NN2)C3=CC=NC=C3 + C[C@]1(O)C[C@@H](c2nc(-c3ccc4ccc(-c5ccccc5)nc4c3)c3c(N)nccn32)C1 [Linsitinib] (partner 1 µM)
Procedure, shortened: (§1)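 Each reported value is a median over duplicate plates. It expresses relative viability: treated-well nuclei count divided by vehicle-well nuclei count. Lung cancer cell lines in 1536-well plates were dosed by pin tool a day after seeding, alone with one drug or with a fixed anchor-drug dose plus five library-drug doses (not always all listed) in √10 steps, and nuclei were counted after 5 days.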

[2] = compound: C1CNCCC1C2=CC(=NN2)C3=CC=NC=C3 + Nc1ncn([C@H]2C[C@H](O)[C@@H](CO)O2)c(=O)n1 [Decitabine] (partner 2 µM)
Procedure, shortened: as §1

[3] = compound: O[C@H]1CC[C@H](Nc2ncc3nc(Nc4c(F)cc(F)cc4F)n([C@H]4CCOC4)c3n2)CC1 [Tanzisertib] + COc1cc2c(Oc3ccc(NC(=O)C4(C(=O)Nc5ccc(F)cc5)CC4)cc3F)ccnc2cc1OCCCN1CCOCC1 [Foretinib] (partner 0.25 µM)
Procedure, shortened: as §1

[4] = compound: C[C@@H](N)c1ccc(C(=O)Nc2ccnc3[nH]ccc23)cc1 + COc1cccc2cc(-c3nc([C@H]4CC[C@H](C(=O)O)CC4)n4ncnc(N)c34)[nH]c12 [OSI-027] (partner 0.5 µM)
Procedure, shortened: as §1

UMC-11
relative viability ([1]; first compound 0.08 µM): 0.987 | relative viability ([1]; first compound 0.8 µM): 1.08 | relative viability ([1]; first compound 2.53 µM): 1.17 | relative viability ([1]; first compound 8 µM): 0.982 | relative viability ([2]; first compound 0.08 µM): 0.4 | relative viability ([2]; first compound 0.8 µM): 0.629 | relative viability ([2]; first compound 2.53 µM): 0.697 | relative viability ([2]; first compound 8 µM): 0.808 | relative viability ([3]; first compound 0.08 µM): 0.976 | relative viability ([3]; first compound 0.253 µM): 1.14 | relative viability ([3]; first compound 0.8 µM): 0.962 | relative viability ([3]; first compound 2.53 µM): 1.01 | relative viability ([3]; first compound 8 µM): 1.18 | relative viability ([4]; first compound 0.04 µM): 0.583 | relative viability ([4]; first compound 0.1265 µM): 0.565 | relative viability ([4]; first compound 0.4 µM): 0.555 | relative viability ([4]; first compound 1.265 µM): 0.453 | relative viability ([4]; first compound 4 µM): 0.459
